The source of these data is patent publication US20170190671A1, “BIS(ARYL)CATECHOL DERIVATIVES AS HERBICIDES” (E I DU PONT DE NEMOURS AND COMPANY, priority 2014, published 2017).

Each structure is given as a SMILES string.

Holding throughout (test): Test E preemergence
Common to all, as to type: in vivo
Conditions in all cases: scale 0 to 100

The test system of test [1] is velvetleaf (Abutilon theophrasti). The method, boiled down: (§1)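 Visual ratings from 0 = no effect to 100 = complete control, scored against untreated controls after 14 to 21 days in the greenhouse. Compounds, in a non-phytotoxic solvent mix with surfactant, went onto silt loam soil right after sowing (preemergence) or onto 2–18 cm plants at the 1- to 4-leaf stage (postemergence).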

Test [2] deals with ragweed (common ragweed, Ambrosia elatior). The method, boiled down:
as §1

The next test relates to kochia (Kochia scoparia). An outline of the steps: as §1

On to `Clc1cnc(Oc2cccc(Br)c2Oc2ncc(Cl)cn2)nc1` [Compound 19, 2,2′-[[3-bromo-1,2-phenylene]bis(oxy)]bis[5-chloropyrimidine]], for which the “Plant response rating, Velvetleaf” value in test [1] (16 g ai/ha) was 0; in test [1] (31 g ai/ha), 0; in test [1] (62 g ai/ha), 50; in test [1] (125 g ai/ha), 100. In addition, the “Plant response rating, Ragweed” value in test [2] (16 g ai/ha) was found to be 0; in test [2] (31 g ai/ha), 0; in test [2] (62 g ai/ha), 10; in test [2] (125 g ai/ha), 50. Moreover, the “Plant response rating, Kochia” value in the test with kochia (Kochia scoparia) (16 g ai/ha) was 35; in the test with kochia (Kochia scoparia) (31 g ai/ha), 75; in the test with kochia (Kochia scoparia) (62 g ai/ha), 98; in the test with kochia (Kochia scoparia) (125 g ai/ha), 100.
Turning to `Fc1cccc(Oc2ncc(Cl)cn2)c1Oc1ncc(Cl)cn1` [Compound 21, 2,2′-[[3-fluoro-1,2-phenylene]bis(oxy)]bis[5-chloropyrimidine]], the “Plant response rating, Velvetleaf” value in test [1] (16 g ai/ha) is recorded as 80; in test [1] (31 g ai/ha), 70; in test [1] (62 g ai/ha) it was 100; in test [1] (125 g ai/ha) it was 100. Further, the “Plant response rating, Ragweed” value is reported as 0 in test [2] (16 g ai/ha), 50 in test [2] (31 g ai/ha), 50 in test [2] (62 g ai/ha) and 98 in test [2] (125 g ai/ha). The “Plant response rating, Kochia” value in the test with kochia (Kochia scoparia) (16 g ai/ha) was found to be 20; with kochia (Kochia scoparia) (31 g ai/ha), 50; in the test on kochia (Kochia scoparia) (62 g ai/ha), 75; in the test on kochia (Kochia scoparia) (125 g ai/ha) it was 100.
Regarding `Fc1ccc(F)c(Oc2ncc(Cl)cn2)c1Oc1ncc(Cl)cn1` [Compound 34, 2,2′-[(3,6-difluoro-1,2-phenylene)bis(oxy)]bis[5-chloropyrimidine]], the “Plant response rating, Velvetleaf” value was 30 in test [1] (16 g ai/ha), 100 in test [1] (31 g ai/ha), 100 in test [1] (62 g ai/ha) and 100 in test [1] (125 g ai/ha). Further, the “Plant response rating, Ragweed” value was found to be 0 in test [2] (16 g ai/ha), 0 in test [2] (31 g ai/ha), 25 in test [2] (62 g ai/ha) and 35 in test [2] (125 g ai/ha). Moreover, the “Plant response rating, Kochia” value in the test with kochia (Kochia scoparia) (16 g ai/ha) is 0; in the test on kochia (Kochia scoparia) (31 g ai/ha) it was 95; in the test on kochia (Kochia scoparia) (62 g ai/ha) it was 100; in the test on kochia (Kochia scoparia) (125 g ai/ha), 100.
In the case of `N#Cc1cccc(Oc2ncc(Cl)cn2)c1Oc1ncc(C(F)(F)F)cn1` [Compound 38, 3-[(5-chloro-2-pyrimidinyl)oxy]-2-[[5-(trifluoromethyl)-2-pyrimidinyl]oxy]-benzonitrile], the “Plant response rating, Velvetleaf” value in test [1] (16 g ai/ha) is on record as 20; in test [1] (31 g ai/ha), 65; in test [1] (62 g ai/ha), 85; in test [1] (125 g ai/ha) it was 100. Besides, the “Plant response rating, Ragweed” value in test [2] (16 g ai/ha) amounted to 40; in test [2] (31 g ai/ha), 40; in test [2] (62 g ai/ha), 60; in test [2] (125 g ai/ha) it was 70. Further, the “Plant response rating, Kochia” value came to 80 in the test on kochia (Kochia scoparia) (16 g ai/ha), 98 in the test on kochia (Kochia scoparia) (31 g ai/ha), 100 with kochia (Kochia scoparia) (62 g ai/ha) and 100 in the test with kochia (Kochia scoparia) (125 g ai/ha).
On to `Fc1cccc(Oc2ncc(Cl)cn2)c1Oc1ncc(C(F)(F)F)cn1` [Compound 43, 5-chloro-2-[5-fluoro-6-[[5-(trifluoromethyl)-2-pyrimidinyl]oxy]phenoxy]pyrimidine], for which the “Plant response rating, Velvetleaf” value in test [1] (31 g ai/ha) worked out at 70; in test [1] (125 g ai/ha), 100. For the same compound, the “Plant response rating, Ragweed” value in test [2] (31 g ai/ha) is on record as 60; in test [2] (125 g ai/ha) it was 85. Besides, the “Plant response rating, Kochia” value in the test with kochia (Kochia scoparia) (31 g ai/ha) amounted to 98; in the test on kochia (Kochia scoparia) (125 g ai/ha), 100.
